Test results: PubChem BioAssay (NCI)
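Cultured in 96-well plates, cells were exposed to test compound for 48 hours across five concentrations. Definition used: TGI = concentration required for complete inhibition of growth.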

Legend:
Test in all cases: inhibition of tumour cell growth, NCI panel, 48 h
RPMI-8226 leukemia = system: RPMI-8226 leukemia
SF-268 CNS = system: SF-268 CNS
HCT-15 colon = system: HCT-15 colon
SK-MEL-28 melanoma = system: SK-MEL-28 melanoma
EKVX NSCLC = system: EKVX NSCLC
SF-295 CNS = system: SF-295 CNS
A549 NSCLC = system: A549 NSCLC
OVCAR-4 ovarian = system: OVCAR-4 ovarian
HOP-92 NSCLC = system: HOP-92 NSCLC
KM12 colon = system: KM12 colon
MALME-3M melanoma = system: MALME-3M melanoma
786-0 renal = system: 786-0 renal
SR leukemia = system: SR leukemia
NCI-H23 lung = system: NCI-H23 lung
MOLT-4 leukemia = system: MOLT-4 leukemia
SW-620 colon = system: SW-620 colon
SN12C renal = system: SN12C renal
TK-10 renal = system: TK-10 renal
UACC-62 melanoma = system: UACC-62 melanoma
MDA-MB-231 breast = system: MDA-MB-231 breast
K-562 leukemia = system: K-562 leukemia
UACC-257 melanoma = system: UACC-257 melanoma
HL-60(TB) leukemia = system: HL-60(TB) leukemia
IGROV1 ovarian = system: IGROV1 ovarian
HT29 colon = system: HT29 colon
MCF7 breast = system: MCF7 breast
HCC-2998 colon = system: HCC-2998 colon
COLO 205 colon = system: COLO 205 colon
MDA-N = system: MDA-N
T-47D breast = system: T-47D breast
SK-MEL-5 melanoma = system: SK-MEL-5 melanoma
SK-OV-3 ovarian = system: SK-OV-3 ovarian
OVCAR-8 ovarian = system: OVCAR-8 ovarian
MDA-MB-435 = system: MDA-MB-435
SNB-75 CNS = system: SNB-75 CNS
CCRF-CEM leukemia = system: CCRF-CEM leukemia
HOP-62 NSCLC = system: HOP-62 NSCLC
CAKI-1 renal = system: CAKI-1 renal
RXF 393 renal = system: RXF 393 renal
DU-145 prostate = system: DU-145 prostate
OVCAR-3 ovarian = system: OVCAR-3 ovarian
UO-31 renal = system: UO-31 renal
M14 melanoma = system: M14 melanoma
ACHN renal = system: ACHN renal
PC-3 prostate = system: PC-3 prostate
NCI-H522 lung = system: NCI-H522 lung
OVCAR-5 ovarian = system: OVCAR-5 ovarian
NCI/ADR-RES ovarian = system: NCI/ADR-RES ovarian
SK-MEL-2 melanoma = system: SK-MEL-2 melanoma
U251 CNS = system: U251 CNS
HS 578T breast = system: HS 578T breast
SNB-19 CNS = system: SNB-19 CNS
HCT-116 colon = system: HCT-116 colon
A498 renal = system: A498 renal
LOX IMVI melanoma = system: LOX IMVI melanoma
NCI-H226 lung = system: NCI-H226 lung

Molecule CCN1CCNc2c3cc(OC)ccc3nc3c([N+](=O)[O-])ccc1c23 has a TGI (RPMI-8226 leukemia) of 3.25 µM, a TGI (SF-268 CNS) greater than 10 µM and a TGI (HCT-15 colon) of 4.29 µM. The TGI (SK-MEL-28 melanoma) was 5.93 µM, the TGI (EKVX NSCLC) was 6.13 µM and the TGI (SF-295 CNS) was 5.55 µM. The TGI (A549 NSCLC) was greater than 10 µM, the TGI (OVCAR-4 ovarian) was 4.33 µM and the TGI (HOP-92 NSCLC) was 4.57 µM. The TGI (KM12 colon) was 3.42 µM, the TGI (MALME-3M melanoma) was 2.29 µM and the TGI (786-0 renal) was 9.61 µM. For the same molecule, the TGI (SR leukemia) was 1.16 µM, the TGI (NCI-H23 lung) was 5.46 µM and the TGI (MOLT-4 leukemia) was 1.34 µM. For the same molecule, the TGI (SW-620 colon) was greater than 10 µM, the TGI (SN12C renal) was 5.74 µM and the TGI (TK-10 renal) was greater than 10 µM. It also gave a TGI (UACC-62 melanoma) of 4.58 µM, a TGI (MDA-MB-231 breast) of 4.56 µM and a TGI (K-562 leukemia) greater than 10 µM. It also gave a TGI (UACC-257 melanoma) of 3.7 µM, a TGI (HL-60(TB) leukemia) of 2.37 µM and a TGI (IGROV1 ovarian) greater than 10 µM. For the same molecule, the TGI (HT29 colon) was greater than 10 µM, the TGI (MCF7 breast) was 6.51 µM and the TGI (HCC-2998 colon) was 2.14 µM. For the same molecule, the TGI (COLO 205 colon) was 5.39 µM, the TGI (MDA-N) was 2.1 µM and the TGI (T-47D breast) was greater than 10 µM. The TGI (SK-MEL-5 melanoma) was 2.53 µM, the TGI (SK-OV-3 ovarian) was greater than 10 µM and the TGI (OVCAR-8 ovarian) was greater than 10 µM. For the same molecule, the TGI (MDA-MB-435) was 2.2 µM, the TGI (SNB-75 CNS) was 4.38 µM and the TGI (CCRF-CEM leukemia) was 3.22 µM. The TGI (HOP-62 NSCLC) was 3.83 µM, the TGI (CAKI-1 renal) was greater than 10 µM and the TGI (RXF 393 renal) was 2.01 µM. For the same molecule, the TGI (DU-145 prostate) was greater than 10 µM.

Molecule O=C1N[C@@H](COc2ccc(C=Nc3ccc(CCc4ccc(N=Cc5ccc(OC[C@@H]6COC(=O)N6)cc5)cc4)cc3)cc2)CO1 has a TGI (RPMI-8226 leukemia) greater than 100 µM, a TGI (OVCAR-3 ovarian) greater than 100 µM and a TGI (SF-268 CNS) greater than 100 µM. The TGI (UO-31 renal) was greater than 100 µM, the TGI (HCT-15 colon) was greater than 100 µM and the TGI (SK-MEL-28 melanoma) was greater than 100 µM. It also gave a TGI (EKVX NSCLC) greater than 100 µM, a TGI (SF-295 CNS) greater than 100 µM and a TGI (A549 NSCLC) greater than 100 µM. It also gave a TGI (OVCAR-4 ovarian) greater than 100 µM, a TGI (M14 melanoma) greater than 100 µM and a TGI (ACHN renal) greater than 100 µM. For the same molecule, the TGI (KM12 colon) was greater than 100 µM, the TGI (MALME-3M melanoma) was greater than 100 µM and the TGI (PC-3 prostate) was greater than 100 µM. It also gave a TGI (786-0 renal) greater than 100 µM, a TGI (SR leukemia) greater than 100 µM and a TGI (NCI-H522 lung) greater than 100 µM. For the same molecule, the TGI (OVCAR-5 ovarian) was greater than 100 µM, the TGI (MOLT-4 leukemia) was greater than 100 µM and the TGI (SW-620 colon) was greater than 100 µM. The TGI (SN12C renal) was greater than 100 µM, the TGI (NCI/ADR-RES ovarian) was greater than 100 µM and the TGI (SK-MEL-2 melanoma) was greater than 100 µM. It also gave a TGI (TK-10 renal) greater than 100 µM, a TGI (UACC-62 melanoma) greater than 100 µM and a TGI (U251 CNS) greater than 100 µM. The TGI (HS 578T breast) was greater than 100 µM, the TGI (MDA-MB-231 breast) was greater than 100 µM and the TGI (K-562 leukemia) was greater than 100 µM. It also gave a TGI (UACC-257 melanoma) greater than 100 µM, a TGI (SNB-19 CNS) greater than 100 µM and a TGI (HL-60(TB) leukemia) greater than 100 µM. For the same molecule, the TGI (IGROV1 ovarian) was greater than 100 µM, the TGI (HCT-116 colon) was greater than 100 µM and the TGI (HT29 colon) was greater than 100 µM. It also gave a TGI (A498 renal) greater than 100 µM, a TGI (COLO 205 colon) greater than 100 µM and a TGI (MDA-N) greater than 100 µM. It also gave a TGI (T-47D breast) greater than 100 µM, a TGI (LOX IMVI melanoma) greater than 100 µM and a TGI (SK-MEL-5 melanoma) greater than 100 µM. For the same molecule, the TGI (SK-OV-3 ovarian) was greater than 100 µM, the TGI (OVCAR-8 ovarian) was greater than 100 µM and the TGI (MDA-MB-435) was greater than 100 µM. It also gave a TGI (HOP-62 NSCLC) greater than 100 µM, a TGI (CAKI-1 renal) greater than 100 µM and a TGI (RXF 393 renal) greater than 100 µM. For the same molecule, the TGI (DU-145 prostate) was greater than 100 µM and the TGI (NCI-H226 lung) was greater than 100 µM.
